Publication PMC3634096 (The Korean Journal of Physiology & Pharmacology : …, 2013)

Biological target: GABAC receptor ρ1 subunit (homomeric) (Homo sapiens, UniProt P24046)
Experiment: two-electrode voltage clamp in Xenopus oocytes, inhibition of GABA
Type: cell-based

Sequence of GABAC receptor ρ1 subunit (homomeric) (P24046 22-479): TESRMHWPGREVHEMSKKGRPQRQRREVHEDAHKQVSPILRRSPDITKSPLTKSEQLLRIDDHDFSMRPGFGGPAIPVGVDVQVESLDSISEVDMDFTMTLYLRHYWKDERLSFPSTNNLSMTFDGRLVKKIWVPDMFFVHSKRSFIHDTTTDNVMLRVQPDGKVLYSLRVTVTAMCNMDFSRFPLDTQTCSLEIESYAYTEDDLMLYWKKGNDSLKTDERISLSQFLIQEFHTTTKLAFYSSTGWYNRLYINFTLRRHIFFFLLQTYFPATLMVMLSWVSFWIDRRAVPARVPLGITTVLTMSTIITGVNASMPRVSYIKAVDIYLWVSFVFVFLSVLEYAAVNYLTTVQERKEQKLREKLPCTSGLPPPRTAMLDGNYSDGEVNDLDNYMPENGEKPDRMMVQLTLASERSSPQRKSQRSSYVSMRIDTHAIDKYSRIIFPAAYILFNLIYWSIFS

Structure (SMILES): Oc1ccc(/C=C/c2cc(O)cc(O)c2)cc1 [Res, Resveratrol]
- IC50: 28.9 ± 2.8 µM
